# Experimental data from patent publication US10881653B2, “Tricyclic compounds and their use in the treatment of cancer” (The United States of America, as represented by the …, priority 2015, dated 2021).
# Where a name gives a salt, the structure may show the parent alone.
# Columns and labels:
# [1] = tested on: UACC-257; assay: Cell growth inhibition GI50; format: cell-based; details: Homo sapiens, Melanoma
# Experimental: (§1) Cell lines were plated 2000 cells/well in 96-well black optical plates in the presence of 10% FBS media containing 25 nM selenite. The following day cells were treated with various concentrations of the compound of Example 1 (0.1% DMSO final) and incubated for 72 hrs. After the incubation Cell-Quanti Blue reagent was added to each well and incubated for additional 3 hrs. Fluorescence was read ex:530 nm/em:590 nm, and percent of viability was determined using DMSO vehicle and no cell (blank) controls.
# (§2) Further results obtained in similar experiments were as indicated below (GI50 refers to concentration of compound yielding 50% growth inhibition; E denotes an exponent to the base 10).
# [2] = tested on: NCI/ADR-RES; assay: Cell growth inhibition GI50; format: cell-based; details: Homo sapiens, Ovarian Cancer
# Experimental: as §1, §2
# [3] = tested on: U251; assay: Cell growth inhibition GI50; format: cell-based; details: Homo sapiens, U-251, CNS Cancer
# Experimental: as §1, §2
# [4] = tested on: SF-268; assay: Cell growth inhibition GI50; format: cell-based; details: Homo sapiens, CNS Cancer
# Experimental: as §1, §2
# [5] = tested on: OVCAR-5; assay: Cell growth inhibition GI50; format: cell-based; details: Homo sapiens, Ovarian Cancer
# Experimental: as §1, §2
# [6] = tested on: RPMI-8226; assay: Cell growth inhibition GI50; format: cell-based; details: Homo sapiens, Leukemia
# Experimental: as §1, §2
# [7] = tested on: PC-3; assay: Cell growth inhibition GI50; format: cell-based; details: Homo sapiens, Prostate Cancer
# Experimental: as §1, §2
# [8] = tested on: MDA-MB-231/ATCC; assay: Cell growth inhibition GI50; format: cell-based; details: Homo sapiens, Breast Cancer
# Experimental: as §1, §2
# [9] = tested on: OVCAR-8; assay: Cell growth inhibition GI50; format: cell-based; details: Homo sapiens, Ovarian Cancer
# Experimental: as §1, §2
# [10] = tested on: NCI-H522; assay: Cell growth inhibition GI50; format: cell-based; details: Homo sapiens, Non-Small Cell Lung Cancer
# Experimental: as §1, §2
# [11] = tested on: MDA-N; assay: Cell growth inhibition GI50; format: cell-based; details: Homo sapiens, Melanoma
# Experimental: as §1, §2
# [12] = tested on: HL-60(TB); assay: Cell growth inhibition GI50; format: cell-based; details: Homo sapiens, Leukemia
# Experimental: as §1, §2
# [13] = tested on: HCC-2998; assay: Cell growth inhibition GI50; format: cell-based; details: Homo sapiens, Colon Cancer
# Experimental: as §1, §2
# [14] = tested on: LOX IMVI; assay: Cell growth inhibition GI50; format: cell-based; details: Homo sapiens, Melanoma
# Experimental: as §1, §2
# [15] = tested on: HOP-92; assay: Cell growth inhibition GI50; format: cell-based; details: Homo sapiens, Non-Small Cell Lung Cancer
# Experimental: as §1, §2
# [16] = tested on: UO-31; assay: Cell growth inhibition GI50; format: cell-based; details: Homo sapiens, Renal Cancer
# Experimental: as §1, §2
# [17] = tested on: M14; assay: Cell growth inhibition GI50; format: cell-based; details: Homo sapiens, Melanoma
# Experimental: as §1, §2
# [18] = tested on: CCRF-CEM; assay: Cell growth inhibition GI50; format: cell-based; details: Homo sapiens, Leukemia
# Experimental: as §1, §2
# [19] = tested on: NCI-H322M; assay: Cell growth inhibition GI50; format: cell-based; details: Homo sapiens, Non-Small Cell Lung Cancer
# Experimental: as §1, §2
# [20] = tested on: HT29; assay: Cell growth inhibition GI50; format: cell-based; details: Homo sapiens, HT-29, Colon Cancer
# Experimental: as §1, §2
# [21] = tested on: OVCAR-3; assay: Cell growth inhibition GI50; format: cell-based; details: Homo sapiens, Ovarian Cancer
# Experimental: as §1, §2
# [22] = tested on: HCT-15; assay: Cell growth inhibition GI50; format: cell-based; details: Homo sapiens, Colon Cancer
# Experimental: as §1, §2
# [23] = tested on: SK-OV-3; assay: Cell growth inhibition GI50; format: cell-based; details: Homo sapiens, Ovarian Cancer
# Experimental: as §1, §2
# [24] = tested on: IGROV1; assay: Cell growth inhibition GI50; format: cell-based; details: Homo sapiens, IGROV-1, Ovarian Cancer
# Experimental: as §1, §2
# [25] = tested on: FaDu cells; details: mouse, in vivo, 15 mg/kg
# Experimental: Fox Chase male severe combined immunodeficiency (SCID, Charles River, #250) mice were inoculated with 1×10^6 FaDu cells in PBS at a pre-shaved region located at the anterior lateral thoracic wall. After 13 days of growth, tumors were caliper measured and treatments were initiated. Mice were injected with 15 mg/kg of the compound of Example 1, or vehicle a total of nine times in a five-day span via i.v. tail injection. Upon the final dose, injections were performed subcutaneously (s.c.) due to pronounced hematomas at the tail injection site. Mouse health status was monitored daily, weight was measured, and tumor volume was recorded from caliper measurements. […] Tumor growth was normalized to day 0 caliper measurements, and treatment with the compound of Example 1 (N=6, p<0.01) was compared to vehicle (N=4) using a repeated measures ANOVA with a Dunnett's multiple comparison post test.
# [26] = molecular target: T1, gluthathione reductase (GR) (Homo sapiens, UniProt P00390); assay: Inhibition of recombinant GR (GSSG assay); format: biochemical
# T1 sequence (P00390 44-522): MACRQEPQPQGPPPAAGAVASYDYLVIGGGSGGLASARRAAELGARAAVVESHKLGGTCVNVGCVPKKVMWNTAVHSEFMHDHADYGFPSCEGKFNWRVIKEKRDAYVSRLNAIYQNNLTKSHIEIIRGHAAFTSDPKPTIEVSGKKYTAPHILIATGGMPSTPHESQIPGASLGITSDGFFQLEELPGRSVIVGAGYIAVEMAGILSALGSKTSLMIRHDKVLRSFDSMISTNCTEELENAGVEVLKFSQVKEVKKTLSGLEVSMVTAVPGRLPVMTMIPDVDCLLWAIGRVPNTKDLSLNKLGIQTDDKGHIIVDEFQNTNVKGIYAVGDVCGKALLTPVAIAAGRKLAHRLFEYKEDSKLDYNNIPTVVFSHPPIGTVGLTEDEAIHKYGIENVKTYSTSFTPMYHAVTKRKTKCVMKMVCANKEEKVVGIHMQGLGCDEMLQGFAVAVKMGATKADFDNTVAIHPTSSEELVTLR
# Summary of the method: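 Human TrxR1 (15 nM) or GR (2 nM) preincubated 15 min with compound, 250 μM NADPH, 0.1 mg/ml BSA in 50 mM Tris pH 7.5, 2 mM EDTA, 1% DMSO. Reaction started with 2.5 mM DTNB (TrxR1, A412) or 1 mM GSSG (GR, A340). Percent activity relative to DMSO and no-enzyme blanks.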
smiles,measurement,setting,value
"O=C1C=C[C@H]2[C@@H]3C(=O)N(c4ccccc4)C(=O)[C@@H]3[C@@H]1N2Cc1ccccc1 (relative stereo) [Example 1, exo-11-Benzyl-4-phenyl-4,11-diazatricyclo[5.3.1.0^2,6]undec-9-ene-3,5,8-trione Trifluoroacetate]",GI50,[1],3.22 µM
same,GI50,[2],2550 nM
same,GI50,[3],2290 nM
same,GI50,[4],3.34 µM
same,GI50,[5],6.75 µM
same,GI50,[6],1590 nM
same,GI50,[7],4.68 µM
same,GI50,[8],5.45 µM
same,GI50,[9],2880 nM
same,GI50,[10],2680 nM
same,GI50,[11],3.14 µM
same,GI50,[12],1170 nM
same,GI50,[13],7.94 µM
same,GI50,[14],1610 nM
same,GI50,[15],3.66 µM
same,GI50,[16],3.42 µM
same,GI50,[17],2600 nM
same,GI50,[18],942 nM
same,GI50,[19],10.2 µM
same,GI50,[20],1790 nM
same,GI50,[21],3.44 µM
same,GI50,[22],1740 nM
same,GI50,[23],13.2 µM
same,GI50,[24],4.81 µM
same,Signs of general or systemic toxic effects,[25],no overt signs of general or systemic toxic effects in normal cells or tissues
same,IC50,"[26]; Biological Example 1, 2 nM GR, 250 μM NADPH, 15 minutes incubation",> 100 µM
same,IC50,"[26]; Biological Example 4, assays of Biological Example 1",> 100 µM
